Structures can show the parent of a compound that is named as a salt.
Legend:
blood uric acid levels = test: Uricosuric activity in the chimpanzee: concentrations of uric acid in serum; type: in vivo; details: single oral 4 mg/kg dose; for Concentrations of uric acid in serum, mean: mean of chimps
Protocol: (§1) Compound of Example 14 was administered to chimpanzees orally as a single 4 mg/kg does. While four animals were dosed, complete data was not collected for one animal (Chimp #4), as an adverse reaction to anesthesia required early termination of this animal from the study.

[1] = test system: urinary excretion of uric acid; test: Uricosuric activity in the chimpanzee: amount of uric acid excreted in the urine; type: in vivo; details: single oral 4 mg/kg dose; for Amount of uric acid excreted in the urine in 24 hour intervals, mean: mean of chimps
Protocol: as §1

[2] = target: human aldose reductase (hALR2) (Homo sapiens, UniProt P15121); test: inhibition of human aldose reductase (hALR2) activity, methods similar to Butera et al.; type: biochemical; details: concentration to inhibit activity by 50%, read-out: hAR-#1 (aldose)
Protocol: Representative compounds of the invention are tested for their potency, selectivity and efficacy as inhibitors of human aldose reductase. […] Using this assay, the concentrations required to inhibit human aldose reductase (hALR2) activity by 50% (IC50) are determined.

O=C(O)Cc1cc(Cc2nc3cc(C(F)(F)F)ccc3s2)cs1 (as salt: hydrochloride)
melting point: 131 to 132 °C

O=C(O)Cc1cncc(Cc2nc3c(F)c(F)cc(F)c3s2)c1 (as salt: hydrochloride) [Example 8, 5-(4,5,7-trifluoro-benzothiazol-2-ylmethyl)-pyridin-3-yl-acetic acid hydrochloride]
melting point: 196 to 197 °C

Cc1nc(C)c(Cc2nc3c(F)c(F)cc(F)c3s2)c(C)c1CC(=O)O (as salt: hydrochloride) [Example 9, 2,4,6-trimethyl-5-(4,5,7-trifluoro-benzothiazol-2-ylmethyl)-pyridin-3-yl-acetic acid hydrochloride]
melting point: 216 to 217 °C

CCc1c(CC(=O)O)c(C)nc(C)c1Cc1nc2c(F)c(F)cc(F)c2s1 (as salt: hydrochloride) [Example 10, 2,6-dimethyl-4-ethyl-5-(4,5,7-trifluoro-benzothiazol-2-ylmethyl)-pyridin-3-yl-acetic acid hydrochloride]
melting point: 193 to 195 °C

O=C(O)Cc1cc(Cc2nc3c(F)c(F)cc(F)c3s2)cnc1Cc1ccccc1 (as salt: hydrochloride) [Example 12, 2-benzyl-5-(4,5,7-trifluoro-benzothiazol-2-ylmethyl)-pyridin-3-yl-acetic acid hydrochloride]
melting point: 175 °C (dec.)

O=C(O)Cc1cc(Cc2nc3c(F)c(F)cc(F)c3s2)cnc1-c1ccccc1 (as salt: hydrochloride) [Example 13, 2-phenyl-5-(4,5,7-trifluoro-benzothiazol-2-ylmethyl)-pyridin-3-yl-acetic acid hydrochloride]
melting point: 110 °C (dec.)

CCc1ncc(CC(=O)O)cc1Cc1nc2c(F)c(F)cc(F)c2s1 (as salt: hydrochloride) [Example 14, 6-ethyl-5-(4,5,7-trifluoro-benzothiazol-2-ylmethyl)-pyridin-3-yl-acetic acid hydrochloride]
melting point: 220 °C (dec.)

O=C(O)Cc1cnc(-c2ccccc2)c(Cc2nc3c(F)c(F)cc(F)c3s2)c1 (as salt: hydrochloride) [Example 15, 6-Phenyl-5-(4,5,7-trifluoro-benzothiazol-2-ylmethyl)-pyridin-3-yl-acetic acid hydrochloride]
melting point: 205 to 207 °C (dec.)

CCc1ncc(CC(=O)O)cc1Cc1nc2c(F)c(F)cc(F)c2s1 [Example 14, 6-ethyl-5-(4,5,7-trifluoro-benzothiazol-2-ylmethyl)-pyridin-3-yl-acetic acid hydrochloride]
Concentrations of uric acid in serum (blood uric acid levels; Chimp #1, 0 hours): 3.0 mg/dL | Concentrations of uric acid in serum (blood uric acid levels; Chimp #1, 0.25 hours): 3.0 mg/dL | Concentrations of uric acid in serum (blood uric acid levels; Chimp #1, 0.50 hours): 3.0 mg/dL | Concentrations of uric acid in serum (blood uric acid levels; Chimp #1, 1.0 hours): 3.0 mg/dL | Concentrations of uric acid in serum (blood uric acid levels; Chimp #1, 2.0 hours): 2.8 mg/dL | Concentrations of uric acid in serum (blood uric acid levels; Chimp #1, 6.0 hours): 2.2 mg/dL | Concentrations of uric acid in serum (blood uric acid levels; Chimp #1, 12 hours): 1.9 mg/dL | Concentrations of uric acid in serum (blood uric acid levels; Chimp #1, 24 hours): 2.3 mg/dL | Concentrations of uric acid in serum (blood uric acid levels; Chimp #1, 48 hours): 3.4 mg/dL | Concentrations of uric acid in serum (blood uric acid levels; Chimp #1, 72 hours): 3.2 mg/dL | Concentrations of uric acid in serum (blood uric acid levels; Chimp #1, Baseline): 2.9 mg/dL | Concentrations of uric acid in serum (blood uric acid levels; Chimp #2, 0 hours): 1.7 mg/dL | Concentrations of uric acid in serum (blood uric acid levels; Chimp #2, 0.25 hours): 1.8 mg/dL | Concentrations of uric acid in serum (blood uric acid levels; Chimp #2, 0.50 hours): 1.8 mg/dL | Concentrations of uric acid in serum (blood uric acid levels; Chimp #2, 1.0 hours): 1.8 mg/dL | Concentrations of uric acid in serum (blood uric acid levels; Chimp #2, 2.0 hours): 1.7 mg/dL | Concentrations of uric acid in serum (blood uric acid levels; Chimp #2, 6.0 hours): 1.2 mg/dL | Concentrations of uric acid in serum (blood uric acid levels; Chimp #2, 12 hours): 0.9 mg/dL | Concentrations of uric acid in serum (blood uric acid levels; Chimp #2, 24 hours): 1.4 mg/dL | Concentrations of uric acid in serum (blood uric acid levels; Chimp #2, 48 hours): 1.2 mg/dL | Concentrations of uric acid in serum (blood uric acid levels; Chimp #2, 72 hours): 1.4 mg/dL | Concentrations of uric acid in serum (blood uric acid levels; Chimp #2, Baseline): 1.9 mg/dL | Concentrations of uric acid in serum (blood uric acid levels; Chimp #3, 0 hours): 2.2 mg/dL | Concentrations of uric acid in serum (blood uric acid levels; Chimp #3, 0.25 hours): 2.3 mg/dL | Concentrations of uric acid in serum (blood uric acid levels; Chimp #3, 0.50 hours): 2.3 mg/dL | Concentrations of uric acid in serum (blood uric acid levels; Chimp #3, 1.0 hours): 2.1 mg/dL | Concentrations of uric acid in serum (blood uric acid levels; Chimp #3, 2.0 hours): 1.9 mg/dL | Concentrations of uric acid in serum (blood uric acid levels; Chimp #3, 6.0 hours): 1.6 mg/dL | Concentrations of uric acid in serum (blood uric acid levels; Chimp #3, 12 hours): 1.6 mg/dL | Concentrations of uric acid in serum (blood uric acid levels; Chimp #3, 24 hours): 1.9 mg/dL | Concentrations of uric acid in serum (blood uric acid levels; Chimp #3, 48 hours): 1.9 mg/dL | Concentrations of uric acid in serum (blood uric acid levels; Chimp #3, 72 hours): 2.4 mg/dL | Concentrations of uric acid in serum (blood uric acid levels; Chimp #3, Baseline): 2.3 mg/dL | Concentrations of uric acid in serum (blood uric acid levels; Chimp #4, 0 hours): 2.5 mg/dL | Concentrations of uric acid in serum (blood uric acid levels; Chimp #4, 0.25 hours): 2.6 mg/dL | Concentrations of uric acid in serum (blood uric acid levels; Chimp #4, 0.50 hours): 2.5 mg/dL | Concentrations of uric acid in serum (blood uric acid levels; Chimp #4, 1.0 hours): 2.7 mg/dL | Concentrations of uric acid in serum (blood uric acid levels; Chimp #4, 2.0 hours): 2.3 mg/dL | Concentrations of uric acid in serum (blood uric acid levels; Chimp #4, 6.0 hours): 1.8 mg/dL | Concentrations of uric acid in serum (blood uric acid levels; Chimp #4, 12 hours): 1.7 mg/dL | Concentrations of uric acid in serum (blood uric acid levels; Chimp #4, Baseline): 2.5 mg/dL | maximal lowering of blood uric acid levels (blood uric acid levels; chimpanzee, average of three animals, at approximately 12 hours following dosage): about 44% | uricosuric effect (blood uric acid levels; chimpanzee, data from three animals): clear uricosuric effect | Concentrations of uric acid in serum, mean (blood uric acid levels; 0 hours): 2.4 mg/dL | Concentrations of uric acid in serum, mean (blood uric acid levels; 0.25 hours): 2.4 mg/dL | Concentrations of uric acid in serum, mean (blood uric acid levels; 0.50 hours): 2.4 mg/dL | Concentrations of uric acid in serum, mean (blood uric acid levels; 1.0 hours): 2.4 mg/dL | Concentrations of uric acid in serum, mean (blood uric acid levels; 2.0 hours): 2.2 mg/dL | Concentrations of uric acid in serum, mean (blood uric acid levels; 6.0 hours): 1.7 mg/dL | Concentrations of uric acid in serum, mean (blood uric acid levels; 12 hours): 1.5 mg/dL | Concentrations of uric acid in serum, mean (blood uric acid levels; 24 hours): 1.9 mg/dL | Concentrations of uric acid in serum, mean (blood uric acid levels; 48 hours): 2.2 mg/dL | Concentrations of uric acid in serum, mean (blood uric acid levels; 72 hours): 2.3 mg/dL | Concentrations of uric acid in serum, mean (blood uric acid levels; Baseline): 2.4 mg/dL | Amount of uric acid excreted in the urine in 24 hour intervals ([1]; Chimp #1, 0-24 hours): 1020 mg | Amount of uric acid excreted in the urine in 24 hour intervals ([1]; Chimp #1, 24-48 hours): 686 mg | Amount of uric acid excreted in the urine in 24 hour intervals ([1]; Chimp #1, 48-72 hours): 657 mg | Amount of uric acid excreted in the urine in 24 hour intervals ([1]; Chimp #1, Baseline): 321 mg | Amount of uric acid excreted in the urine in 24 hour intervals ([1]; Chimp #2, 0-24 hours): 758 mg | Amount of uric acid excreted in the urine in 24 hour intervals ([1]; Chimp #2, 24-48 hours): 399 mg | Amount of uric acid excreted in the urine in 24 hour intervals ([1]; Chimp #2, 48-72 hours): 290 mg | Amount of uric acid excreted in the urine in 24 hour intervals ([1]; Chimp #2, Baseline): 474 mg | Amount of uric acid excreted in the urine in 24 hour intervals ([1]; Chimp #3, 0-24 hours): 843 mg | Amount of uric acid excreted in the urine in 24 hour intervals ([1]; Chimp #3, 24-48 hours): 189 mg | Amount of uric acid excreted in the urine in 24 hour intervals ([1]; Chimp #3, 48-72 hours): 216 mg | Amount of uric acid excreted in the urine in 24 hour intervals ([1]; Chimp #3, Baseline): 347 mg | Amount of uric acid excreted in the urine in 24 hour intervals ([1]; Chimp #4, Baseline): 450 mg | urinary excretion of uric acid ([1]; chimpanzee, over the first 24 hours following dosage): concomitant increase in the urinary excretion of uric acid | Amount of uric acid excreted in the urine in 24 hour intervals, mean ([1]; 0-24 hours): 874 mg | Amount of uric acid excreted in the urine in 24 hour intervals, mean ([1]; 24-48 hours): 425 mg | Amount of uric acid excreted in the urine in 24 hour intervals, mean ([1]; 48-72 hours): 388 mg | Amount of uric acid excreted in the urine in 24 hour intervals, mean ([1]; Baseline): 398 mg | IC50 [2]: 7 nM

From patent US7361671B2, “Substituted heteroarylalkanoic acids” (The Institute for Pharmaceutical Discovery, Inc., priority 2001, dated 2008)
